From US11766430B2, “Methods of using a phenoxypropylamine compound to treat pain” (Minerva Neurosciences, Inc., priority 2018, dated 2023) come the findings set out here.

Each structure is given as a SMILES string. Entries after “also recorded” stand apart in the source; their conditions may differ.

Common to all, as to assay type: in vivo, Male Sprague Dawley rats
Data set [1] in a line: Body weight, reversal study (Example 6). The note with it: 1, 3 and 10 mg/kg i.p. once daily for 2 weeks; repeated measures ANOVA. As for the experimental part:
(§1) Body weight (BW) was measured daily during treatment and twice a week after cessation of dosing.
(§2) Data was analyzed by analysis of variance (ANOVA) followed by post-hoc comparisons where appropriate. An effect will be considered significant if p<0.05. Data was represented as the mean and standard error to the mean (s.e.m). Statistical outliers that fell above or below 2 standard deviations of the mean were identified but not removed from the final analysis.

Data set [2] in a line: Body weight during the chemotherapy induced neuropathic pain study (Example 5). The conditions noted are these: paclitaxel days 1, 3, 5, 7; test compound on day 14; repeated measures ANOVA. As for the experimental part:
Male Sprague Dawley rats (from Envigo, Ind., USA) were used in the study. Animals were received at approximately 250 g and housed 3 per cage upon arrival. All rats were examined, handled, and weighed prior to initiation of the study to assure adequate health and suitability. During the course of the study, 12 h/12 h light/dark cycles was maintained. The room temperature was be maintained between 20 and 23° C. with a relative humidity maintained around 50%. Chow and water was provided ad libitum for the duration of the study. All testing was performed during the animal's light cycle phase. Every effort was made to minimize suffering of animals. Rats with baseline PWT less than 12 g were not included in the study. Rats were balanced by body weight and by their pre-paclitaxel PWT values. ANOVA found no significant differences between the treatment groups.

Data set [3] deals with paclitaxel-induced peripheral neuropathic pain in rats. Kind of data set: Reversal of paclitaxel-induced peripheral neuropathic pain, paw withdrawal threshold, chronic administration (Example 6). The note with it: hydrochloride; for PWT compared to vehicle (in words): days 14, 21 and 28, 2 hours post dosing. As for the experimental part: Male Sprague Dawley rats from Envigo were used in the study. Animals were received at approximately 250 g and housed 3 per cage upon arrival. All rats were examined, handled, and weighed prior to initiation of the study to assure adequate health and suitability. During the course of the study, 12/12 light/dark cycles was maintained. The room temperature was be maintained between 20 and 23° C. with a relative humidity maintained around 50%. Chow and water was provided ad libitum for the duration of the study. All testing was performed during the animal's light cycle phase.
Paclitaxel (2 mg/kg) was purchased from Biolyse Pharma and injected i.p. on four alternate days (day 1, 3, 5 and 7) for a total of 4 injections at a dose volume of 1 mL/kg.
Gabapentin (100 mg/kg) was dissolved in saline and administered orally at a dose volume of 1 mL/kg. For prevention study, gabapentin was administered on day 14, sixty minutes prior to test. For reversal study, gabapentin was administered once daily for 2 weeks. On test days it was administered 60 minutes prior to test.
Reversal study: MIN-117 (1, 3 and 10 mg/kg) was formulated in 0.5% (w/v) hydroxypropylmethyl cellulose (HPMC) 8°-120 centipoises in water and administered i.p once daily for 2 weeks at a dose volume of 1 mL/kg. On test days, MIN-117 was administered 2 hours prior to test.
Rats were administered paclitaxel (2 mg/kg) on four alternate days (days 1, 3, 5 and 7). Baseline and post treatment Paw Withdrawal Threshold (PWT) were evaluated using von Frey filaments (Semmes-Weinstein filaments, Stoelting, Wood Dale, Ill., USA) of varying stiffness (0.4, 0.7, 1.2, 2.0, 3.6, 5.5, 8.5, 10, 15, 26 g). Animals were placed on a perforated metallic platform and allowed to acclimate to their surroundings for a minimum of 15 minutes before each test session. Each filament was presented perpendicular to the plantar surface with sufficient force to cause slight buckling against the paw, and then held until a positive response is noted (paw sharply withdrawn). As described by Chaplan et al. 1994, once the threshold was crossed, the 2 responses straddling the threshold are retrospectively designated as the first 2 responses. Four additional responses were measured to stimuli varied sequentially up or down based on the animal's response. The 6 responses in the immediate vicinity of the threshold were used to calculate the 50% g threshold: 50% g threshold=(10^[Xf+k*d])/10000 Xf is the final filament used (in log units). The parameter k is from the Appendix 1 in Chaplan and was determined by the pattern of the von Frey responses (e.g. OXOXOX where ‘O’ indicates no response and ‘X’ denotes a withdrawal). The parameter d is the difference between stimuli which Chaplan used a constant d=0.224. To accommodate for the use of the 10 g and 26 g filaments, the exact difference between stimuli were used.
PWT was measured according to the Schematics in FIG. 9 (prevention) and FIG. 10 (reversal study).
as §2

Data set [4] is described as follows: Body weight, prevention study (Example 6). The conditions noted are these: 10 mg/kg i.p. once daily for 7 or 14 days; effect seen from day 2 until day 11. As for the experimental part: as §1, §2

For `Cc1nnc(-c2cc3c(OC[C@@H](O)CN4CCC(c5ccc(Cl)c(Cl)c5)CC4)cccc3o2)o1.Cl` [MIN-117, (2S)-1-(4-(3,4-dichlorophenyl)piperidin-1-yl)-3-((2-(5-methyl-1,3,4-oxadiazol-2-yl)benzofuran-4-yl)oxy)propan-2-ol hydrochloride], the “Body weight during treatment compared to vehicle (in words)” value in data set [1] is listed as “no significant treatment effect”. The “Body weight during the study, between groups (in words)” value in data set [2] is on record as “no significant difference between groups”. Also, the “PWT compared to vehicle (in words)” value in data set [3] (1 mg/kg i.p. once daily for 2 weeks), in data set [3] (3 mg/kg i.p. once daily for 2 weeks) and in data set [3] (10 mg/kg i.p. once daily for 2 weeks) was “significant increase in PWT; also recorded: significantly higher PWT” throughout. Also, in data set [3] (1, 3 and 10 mg/kg i.p., day 35, one week after cessation of treatment), the “PWT after cessation of treatment (in words)” value is recorded as “no analgesic effects; also recorded: returned to vehicle levels”. In addition, the “Body weight compared to vehicle (in words)” value in data set [4] is reported as “decrease in body weight”.
